{"source": "patent US20060293294A1", "about": "“Method for treatment or prevention of androgen deficiency” (HORMOS MEDICAL CORPORATION, priority 2004, published 2006)", "system": "healthy, elderly men", "test": "Phase I repeated dose study 101-50202: serum hormone concentrations before and during 28-day treatment", "assay_type": "in vivo, human", "conditions": "for increase in the mean total testosterone compared to the baseline concentration: 300 mg dose", "from_the_text": "Fispemifene has been studied in two phase I studies in humans—in a single dose and a repeated dose study. Effect of fispemifene on hormone levels was one main focus of the repeated dose study. The phase I repeated dose study (number 101-50202) was a randomized, double-blind, placebo-controlled 28-day dose-escalation study performed in 32 healthy, elderly men, aged 50-68 years. The main objective of the study was to investigate the tolerability, safety and pharmacokinetics of fispemifene after repeated oral doses, but the study focused also on the effects of fispemifene on serum testosterone, estradiol, and other relevant hormones. The fispemifene doses 10, 30, 100 and 300 mg per day and placebo were administered once every morning as capsules containing 10 mg or 100 mg of fispemifene, or placebo. The dose was escalated to the next higher dose level, if the previous dose had been safe and well tolerated evaluated by the laboratory safety determinations and ultrasound of mammagy glands.\nThe variables for safety and tolerability were adverse events, vital signs, 12-lead ECG, clinical laboratory evaluations, physical examination, ultrasound examinations (mammary glands) and inhibin b. For pharmacokinetics, the concentrations of fispemifene and its metabolite(s) were to be evaluated. For pharmacodynamics, serum concentrations of FSH, LH, estradiol, testosterone, SHBG, prolactin, aldosterone, cortisol and TSH before and during treatment were measured and compared with the concentrations in the placebo-group.", "data": [{"compound": "OCCOCCOc1ccc(/C(=C(/CCCl)c2ccccc2)c2ccccc2)cc1", "note": "[Fispemifene, (Z)-2-{2-[4-(4-Chloro-1,2-diphenylbut-1-enyl)phenoxy]ethoxy}ethanol]", "values": [{"measurement": "Serum total testosterone concentration, Mean", "setting": "10 mg per day oral, Baseline", "result": 19.33, "unit": "nmol/L"}, {"measurement": "Serum total testosterone concentration, Mean", "setting": "10 mg per day oral, Day 8", "result": 19.83, "unit": "nmol/L"}, {"measurement": "Serum total testosterone concentration, Mean", "setting": "10 mg per day oral, Day 15", "result": 20.50, "unit": "nmol/L"}, {"measurement": "Serum total testosterone concentration, Mean", "setting": "10 mg per day oral, Day 22", "result": 22.00, "unit": "nmol/L"}, {"measurement": "Serum total testosterone concentration, Mean", "setting": "10 mg per day oral, Day 28", "result": 17.40, "unit": "nmol/L"}, {"measurement": "Serum total testosterone concentration, Mean", "setting": "30 mg per day oral, Baseline", "result": 15.00, "unit": "nmol/L"}, {"measurement": "Serum total testosterone concentration, Mean", "setting": "30 mg per day oral, Day 8", "result": 14.40, "unit": "nmol/L"}, {"measurement": "Serum total testosterone concentration, Mean", "setting": "30 mg per day oral, Day 15", "result": 15.00, "unit": "nmol/L"}, {"measurement": "Serum total testosterone concentration, Mean", "setting": "30 mg per day oral, Day 22", "result": 15.80, "unit": "nmol/L"}, {"measurement": "Serum total testosterone concentration, Mean", "setting": "30 mg per day oral, Day 28", "result": 14.80, "unit": "nmol/L"}, {"measurement": "increase of the mean total testosterone", "setting": "100 mg dose, 28 days of treatment", "result": "about 32%"}, {"measurement": "subjects in whom an increase in testosterone serum concentration was seen", "setting": "100 mg or 300 mg, 28-day treatment", "result": "all the subjects"}, {"measurement": "Serum total testosterone concentration, Mean", "setting": "100 mg per day oral, Baseline", "result": 14.27, "unit": "nmol/L"}, {"measurement": "Serum total testosterone concentration, Mean", "setting": "100 mg per day oral, Day 8", "result": 18.67, "unit": "nmol/L"}, {"measurement": "Serum total testosterone concentration, Mean", "setting": "100 mg per day oral, Day 15", "result": 19.00, "unit": "nmol/L"}, {"measurement": "Serum total testosterone concentration, Mean", "setting": "100 mg per day oral, Day 22", "result": 17.83, "unit": "nmol/L"}, {"measurement": "Serum total testosterone concentration, Mean", "setting": "100 mg per day oral, Day 28", "result": 18.83, "unit": "nmol/L"}, {"measurement": "increase in the mean total testosterone compared to the baseline concentration", "setting": "28 days of treatment", "result": 75, "unit": "%"}, {"measurement": "increase in the mean total testosterone compared to the baseline concentration", "setting": "28 days of treatment, listed as fispemifene", "result": "about 75%"}, {"measurement": "Serum total testosterone concentration, Mean", "setting": "300 mg per day oral, Baseline", "result": 15.67, "unit": "nmol/L"}, {"measurement": "Serum total testosterone concentration, Mean", "setting": "300 mg per day oral, Day 8", "result": 23.17, "unit": "nmol/L"}, {"measurement": "Serum total testosterone concentration, Mean", "setting": "300 mg per day oral, Day 15", "result": 27.00, "unit": "nmol/L"}, {"measurement": "Serum total testosterone concentration, Mean", "setting": "300 mg per day oral, Day 22", "result": 27.83, "unit": "nmol/L"}, {"measurement": "Serum total testosterone concentration, Mean", "setting": "300 mg per day oral, Day 28", "result": 27.50, "unit": "nmol/L"}, {"measurement": "serum concentrations of testosterone, FSH, LH, and SHBG", "setting": "during the 28 days of treatment", "result": "increased"}, {"measurement": "men with serum testosterone level above the upper limit of normal range (33 nmol/L) during treatment", "setting": "highest dose (300 mg), six men", "result": "Two out of six men"}, {"measurement": "change in the serum testosterone concentration", "setting": "within 28 days from the start of the treatment", "result": "clinically and statistically significant and dose dependent increase"}]}]}
